# Patent US20260256863A1, “COMPOSITION, COMPRISING CINNAMOMUM CASSIA EXTRACT HAVING INNOVATIVE CKD EXTRACTION TECHNOLOGY (ICET) TECHNOLOGY APPLIED THERETO, FOR PREVENTING, ALLEVIATING, OR TREATING GASTRITIS OR PEPTIC ULCER” (CHONG KUN DANG PHARMACEUTICAL CORP., priority 2022, published 2026)
# Tested on: acute or chronic gastritis patients with one or more erosions
# Assay: Clinical trial in acute or chronic gastritis patients (gastroscopy, Example 3)
# Assay type: in vivo, human
# Conditions: 300 mg, 2 weeks, N=42
# Experimental: The Cinnamomum cassia extract of the Preparation Example 1 according to the present disclosure, placebo, and active control drug were administered to acute and chronic gastritis patients to compare and evaluate the effectiveness and safety of Cinnamomum cassia extract according to the present disclosure in a searching manner and to determine an appropriate dose. Specifically, acute or chronic gastritis patients with one or more erosions identified in a gastroscopy performed within 7 days from the start date of administration of investigational medical product were divided into the following test groups and administered for 2 weeks. • Test group I (group administered with 225 mg of Cinnamomum cassia extract according to the present disclosure) • Test group II (group administered with 450 mg of Cinnamomum cassia extract according to the present disclosure) • Control group I (group administered with placebo) • Control group II (group administered with 180 mg of ethanol soft ext. (20->1) of 95% artemisia) • Control group III (group administered with 300 mg rebamipide) • (1) Effective rate on gastroscopy: The proportion of test subjects whose erosion score on gastroscopy reduced by more than 50% after 2 weeks of administration (visit 3) compared to baseline (visit 1) was calculated according to the following Equation 1, and evaluated according to the criteria in Table 3. [table] • (1) Complete cure rate on gastroscopy: The proportion of test subjects who were completely cured to normal on gastroscopy (0 erosions: erosion score 1 point) after 2 weeks of administration (visit 3) compared to baseline (visit 1) was calculated and evaluated according to the following Equation 2.
compound,measurement,value
O=C(NC(Cc1cc(=O)[nH]c2ccccc12)C(=O)O)c1ccc(Cl)cc1 (stereo not shown) [rebamipide],Complete cure rate on gastroscopy,40.48%
same,Effective example people (complete cure rate on gastroscopy),17 people
same,Effective example people (effective rate on gastroscopy),20 people
same,Effective rate on gastroscopy,47.62%
